Laboratory results as given in patent US11413278B2, “Compounds and methods for promoting stress resistance” (priority 2015, dated 2022).
Like-named read-outs stand apart in the source and are kept apart here.

How the values were obtained:
NRF2 = assay: qPCR analysis of NRF2-regulated genes; format: cell-based, human; settings: for fold induction at 10 µM: Homo sapiens
In short: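 WI-38 cells treated with compound at 10 μM for 24 hrs, then processed by Cells-to-Ct for RNA isolation, RT and qPCR of NRF2-regulated genes (HMOX1, NQO1, GCLC, GSTM1). Expression normalized to B2M, PPIA and GAPDH; siRNA knockdown of FOXO3 or NRF2 (10 nM) preceded treatment in some runs.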

human PARP1 = biological target: T1, human PARP1 (Homo sapiens, UniProt P09874); assay: PARP inhibitor assay (HT Fluorescent Homogeneous PARP Inhibition Assay Kit); format: biochemical; settings: score
T1 construct: purchased Trevigen
In short: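 Human PARP1 with NAD and activated DNA, compounds at 10 μM final, 30 min at room temperature in dark. Resazurin/diaphorase cycling mix then added for 1 hr in dark before stop buffer; fluorescent homogeneous kit read-out.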

WI-38 cells = settings: no H2O2 stress, 10 uM; negative control 0.41% ± 0.23%
Procedure: WI-38 cells were seeded on 384-well plates for 24 hrs and then incubated with small molecules for 24 hrs. […] Images were collected on an INCell Analyzer 2000 (GE) and analyzed with the Developer software.

C. elegans = C. elegans lifespan assays (liquid and plate); format: in vivo, Caenorhabditis elegans; settings: for ILS at 66 µM / ILS at 60 µM: Caenorhabditis elegans
FOXO3 = assay: qPCR analysis of FOXO3-regulated genes; format: cell-based, human; settings: for fold induction at 10 µM: Homo sapiens
In short: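 WI-38 cells treated with compound at 10 μM for 24 h, followed by Cells-to-Ct RT-qPCR of FOXO3 target genes normalised to B2M, PPIA and GAPDH. FOXO3 or NRF2 dependence tested by prior 10 nM siRNA knockdown (36 h transfection, compound added ~24 h after replating).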

T1 sequence (P09874 whole entry): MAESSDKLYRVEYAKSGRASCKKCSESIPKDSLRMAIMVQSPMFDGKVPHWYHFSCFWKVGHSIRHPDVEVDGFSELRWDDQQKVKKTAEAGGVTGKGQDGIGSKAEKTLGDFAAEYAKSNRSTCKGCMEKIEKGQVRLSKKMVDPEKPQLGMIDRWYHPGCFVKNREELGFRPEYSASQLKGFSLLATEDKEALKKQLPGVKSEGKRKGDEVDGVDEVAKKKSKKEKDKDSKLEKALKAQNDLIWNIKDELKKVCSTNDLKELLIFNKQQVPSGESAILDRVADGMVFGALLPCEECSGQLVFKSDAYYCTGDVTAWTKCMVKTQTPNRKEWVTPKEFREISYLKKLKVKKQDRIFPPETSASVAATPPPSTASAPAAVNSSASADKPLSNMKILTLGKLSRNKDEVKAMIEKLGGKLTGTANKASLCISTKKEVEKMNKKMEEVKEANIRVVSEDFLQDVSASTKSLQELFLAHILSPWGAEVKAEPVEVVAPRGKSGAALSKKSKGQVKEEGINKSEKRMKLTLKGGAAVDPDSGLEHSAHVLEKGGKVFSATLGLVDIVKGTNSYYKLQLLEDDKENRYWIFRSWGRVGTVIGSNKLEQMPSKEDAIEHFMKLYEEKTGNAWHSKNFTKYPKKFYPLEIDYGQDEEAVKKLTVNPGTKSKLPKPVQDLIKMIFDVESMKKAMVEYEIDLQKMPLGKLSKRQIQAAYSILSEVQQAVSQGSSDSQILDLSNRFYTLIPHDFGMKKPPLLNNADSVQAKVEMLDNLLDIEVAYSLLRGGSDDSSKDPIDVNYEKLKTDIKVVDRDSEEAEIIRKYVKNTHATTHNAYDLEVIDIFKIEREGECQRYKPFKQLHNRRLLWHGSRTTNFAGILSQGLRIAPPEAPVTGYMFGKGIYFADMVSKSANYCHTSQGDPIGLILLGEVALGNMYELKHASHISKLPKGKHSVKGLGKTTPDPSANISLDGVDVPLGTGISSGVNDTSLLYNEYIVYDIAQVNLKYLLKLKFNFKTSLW

Question: Which results are given for Nc1ccccc1S(=O)(=O)Nc1cccc2cccnc12 [Gr-3C]?
Answer: F = Potential NRF2 Activation (NRF2; 2-point score): 0; fold induction at 10 µM (NRF2; 24 h, Assay 12(o), at 10 uM, qPCR, read-out: Induction of NRF2-regulated genes: HMOX1 normalized fold-change): 0.86; fold induction at 10 µM (NRF2; WI-38 cells, 10 μM, 24 hrs, n=4, qPCR normalized by B2M, read-out: GCLC Normalized fold change): 0.991; fold induction at 10 µM (NRF2; WI-38 cells, 10 μM, 24 hrs, n=4, qPCR normalized by B2M, read-out: GSTM1 Normalized fold change): 1.45; fold induction at 10 µM (NRF2; WI-38 cells, 10 μM, 24 hrs, n=4, qPCR normalized by B2M, read-out: HMOX1 Normalized fold change): 1.12; fold induction at 10 µM (NRF2; WI-38 cells, 10 μM, 24 hrs, n=4, qPCR normalized by B2M, read-out: NQO1 Normalized fold change): 1.19; F = Potential NRF2 Activation (NRF2; summary score): 0; L = PARP inhibition (human PARP1): 0; Percentage of propidium iodide-positive dead cells (no H2O2 stress treatment), at 10 uM (WI-38 cells): 0.57% ± 0.24%,; ILS at 66 µM (C. elegans; Assay 2(z), 1.0 × 10^9 bacteria/ml, wild type + FuDR (2012 July), read-out: Lifespan assay in liquid): 18.9%; ILS at 66 µM (C. elegans; Assay 3(aa), 2.5 × 10^9 bacteria/ml, wild type + FuDR, read-out: Lifespan assay in liquid): 11.9%; ILS at 66 µM (C. elegans; Assay 4(ab), 2.0 × 10^10 bacteria/ml, CF512 worms, no FuDR, read-out: Lifespan assay on plates): 8%; ILS at 60 µM (C. elegans; read-out: relative change of mean lifespan vs control, Trial 1): 18.9%; ILS at 60 µM (C. elegans; read-out: relative change of mean lifespan vs control, Trial 2): 11.9%; ILS at 60 µM (C. elegans; read-out: relative change of mean lifespan vs control, Trial 3): 8%; Extension of C. elegans' lifespan (qualitative) (C. elegans; in at least 3 to 4 trials, group range ~10% to ~50%): could extend animal's lifespan; O = Life span- extending scores in worms (C. elegans; score scale 0 to 2, 4 to 6 independent trials): 2 (2 for observed in more than 2 trials); M = Lifespan-extending scores in worms (C. elegans; summary score): 2 (2 for observed in more than 2 trials); E = Potential FOXO3 Activation (FOXO3; 2-point score): 0; fold induction at 10 µM (FOXO3; 24 h, Assay 10(m), at 10 uM, qPCR, read-out: Induction of FOXO3-regulated genes: DDB1 normalized fold-change): 0.79; fold induction at 10 µM (FOXO3; 10 μM, 24 hrs, WI-38 cells, qPCR, normalized to B2M, n = 4, read-out: CAT expression, normalized fold change (FOXO3-regulated gene)): 0.87; fold induction at 10 µM (FOXO3; WI-38 cells, 10 μM, 24 hrs, n=4, qPCR normalized by B2M, read-out: DDB1 Normalized fold change): 0.985; fold induction at 10 µM (FOXO3; WI-38 cells, 10 μM, 24 hrs, n=4, qPCR normalized by B2M, read-out: GADD45A Normalized fold change): 1.16; fold induction at 10 µM (FOXO3; WI-38 cells, 10 μM, 24 hrs, n=4, qPCR normalized by B2M, read-out: SESN1 Normalized fold change): 1.09; fold induction at 10 µM (FOXO3; fold change, qPCR, WI-38 cells, 10 μM, 24 hrs, read-out: Summary of effects on FOXO3-regulated genes: CAT): 0.87; fold induction at 10 µM (FOXO3; qPCR, WI-38 cells, 10 μM, n=4, 24 hrs, normalized by B2M, read-out: CAT Normalized fold change): 0.868; fold induction at 10 µM (FOXO3; qPCR, WI-38 cells, 10 μM, n=4, 24 hrs, normalized by B2M, read-out: SOD2 Normalized fold change): 1.2; fold induction at 10 µM (FOXO3; qPCR, WI-38 cells, 10 μM, n=4, 24 hrs, normalized by B2M, read-out: TXNIP Normalized fold change): 1.03; K = Sestrin induction (FOXO3; score): 0; E = Potential FOXO3 Activation (FOXO3; summary score): 0
